Experimental data reported in paper PMC6100356, “The Design and Synthesis of N-Xanthone Benzenesulfonamides as Novel Phosphoglycerate Mutase 1 (PGAM1) Inhibitors” (Molecules : A Journal of Synthetic Chemistry and Natural …, 2018).

Assays:
H1299 cell line = assay: In vitro antiproliferation of H1299 cells (MTT method); type: cell-based; conditions: Homo sapiens, NCI-H1299, 72 h, means ± SD from three determinations
Protocol: Then, some representative compounds were picked out to evaluate their antiproliferative activity (H1299 cell line) by the MTT method (Table 4).
2 × 10^3 cells were seeded in a 96-well plate before starting the assay and they were cultured at 37 °C. After seeding for 24 h, cells were treated with inhibitors with a specific concentration and incubated at 37 °C for 72 h, followed by incubation with 0.5 mg mL^−1 MTT for 4 h at 37 °C. Then, 200 µL of DMSO was added and the absorbance was measured at 570 nm.

enolase, PK, LDH = assay: Counter-screen assay (coupled enzymes without PGAM1, 2PG as substrate); type: biochemical
Protocol: The counter-screen assay was then performed to exclude the off-target inhibition against other enzymes in the in vitro assay (Table 3).

H1299 cell = conditions: Figure 1; ref 14 (PGMI-004A), ref 20 (EGCG); cited from earlier work
PGAM1 = conditions: Figure 1; ref 14 (PGMI-004A), ref 20 (EGCG); cited from earlier work

Row | IC50 (H1299 cell line) [µM] | Counter-Screen Assay (5 μM), inhibition ratio against the other three enzymes (enolase, PK, LDH) [%] | SMILES | IC50 (H1299 cell) [µM] | IC50 (PGAM1) [µM]
1 | 20.1 ± 1.4 | 9 | O=c1c2c(O)cccc2oc2cc(NS(=O)(=O)c3ccc(-c4ccccc4)cc3)cc(O)c12 [Compound 9m, N-(1,8-Dihydroxy-9-oxo-9H-xanthen-3-yl)-[1,1′-biphenyl]-4-sulfonamide] |  | 
2 |  | 7 | Cc1ccc2oc3cc(NS(=O)(=O)c4ccc(-c5ccccc5)cc4)cc(O)c3c(=O)c2c1 [Compound 15e, N-(1-Hydroxy-7-methyl-9-oxo-9H-xanthen-3-yl)-[1,1′-biphenyl]-4-sulfonamide] |  | 
3 | 30.6 ± 2.4 | 10 | O=c1c2cc(O)ccc2oc2cc(NS(=O)(=O)c3ccc(-c4ccccc4)cc3)cc(O)c12 [Compound 15i, N-(1,7-Dihydroxy-9-oxo-9H-xanthen-3-yl)-[1,1′-biphenyl]-4-sulfonamide] |  | 
4 | 33.8 ± 6.1 | 5 | O=c1c2cc([N+](=O)[O-])ccc2oc2cc(NS(=O)(=O)c3ccc(-c4ccccc4)cc3)cc(O)c12 [Compound 15h, N-(1-Hydroxy-7-nitro-9-oxo-9H-xanthen-3-yl)-[1,1′-biphenyl]-4-sulfonamide] |  | 
5 | 42.7 ± 3.9 | 13 | COc1cccc2c(=O)c3c(O)cc(NS(=O)(=O)c4ccc(-c5ccccc5)cc4)cc3oc12 [Compound 15b, N-(1-Hydroxy-5-methoxy-9-oxo-9H-xanthen-3-yl)-[1,1′-biphenyl]-4-sulfonamide] |  | 
6 |  | 7 | Cc1cccc2c(=O)c3c(O)cc(NS(=O)(=O)c4ccc(-c5ccccc5)cc4)cc3oc12 [Compound 15c, N-(1-Hydroxy-5-methyl-9-oxo-9H-xanthen-3-yl)-[1,1′-biphenyl]-4-sulfonamide] |  | 
7 | 32.7 ± 0.9 | 8 | O=c1c2cc(Cl)ccc2oc2cc(NS(=O)(=O)c3ccc(-c4ccccc4)cc3)cc(O)c12 [Compound 15f, N-(7-Chloro-1-hydroxy-9-oxo-9H-xanthen-3-yl)-[1,1′-biphenyl]-4-sulfonamide] |  | 
8 | 14.1 ± 1.9 | 12 | O=c1c2c(O)cccc2oc2cc(NS(=O)(=O)c3cccc(Cl)c3F)cc(O)c12 [Compound 9h, 3-Chloro-N-(1,8-dihydroxy-9-oxo-9H-xanthen-3-yl)-2-fluorobenzenesulfonamide] |  | 
9 | 0.193 |  | Nc1ccn([C@@H]2O[C@H](CO)[C@@H](O)C2(F)F)c(=O)n1 [Gemcitabine, reference compound] |  | 
10 | 19.6 ± 2.2 | 6 | COc1ccc2oc3cc(NS(=O)(=O)c4ccc(-c5ccccc5)cc4)cc(O)c3c(=O)c2c1 [Compound 15d, N-(1-Hydroxy-7-methoxy-9-oxo-9H-xanthen-3-yl)-[1,1′-biphenyl]-4-sulfonamide] |  | 
11 | 31.1 ± 4.5 | 7 | CC(=O)Oc1ccc2oc3cc(NS(=O)(=O)c4ccc(-c5ccccc5)cc4)cc(O)c3c(=O)c2c1 [Compound 15j, 6-([1,1′-Biphenyl]-4-sulfonamido)-8-hydroxy-9-oxo-9H-xanthen-2-yl acetate] |  | 
12 | 26 ± 2.1 |  | O=C1c2ccccc2C(=O)c2c1cc(S(=O)(=O)Nc1ccc(C(F)(F)F)cc1)c(O)c2O [PGMI-004A, reference compound] | 25.6 | 
13 |  |  | O=C(O[C@@H]1Cc2c(O)cc(O)cc2O[C@@H]1c1cc(O)c(O)c(O)c1)c1cc(O)c(O)c(O)c1 [EGCG, epigallocatechin gallate] | > 80 | 0.49
14 | 18.5 ± 2.3 | 15 | O=c1c2c(O)cccc2oc2cc(NS(=O)(=O)c3ccc(C4CCCCC4)cc3)cc(O)c12 [Compound 9l, 4-Cyclohexyl-N-(1,8-dihydroxy-9-oxo-9H-xanthen-3-yl)benzenesulfonamide] |  | 
15 |  | 13 | O=c1c2c(O)cccc2oc2cc(NS(=O)(=O)c3cccc4ccccc34)cc(O)c12 [Compound 9n, N-(1,8-Dihydroxy-9-oxo-9H-xanthen-3-yl)naphthalene-1-sulfonamide] |  | 
16 | 21.1 ± 1.7 | 12 | CC(C)(C)c1ccc(S(=O)(=O)Nc2cc(O)c3c(=O)c4c(O)cccc4oc3c2)cc1 [Compound 9k, 4-(tert-Butyl)-N-(1,8-dihydroxy-9-oxo-9H-xanthen-3-yl)benzenesulfonamide] |  | 
